Laboratory results taken from patent EP4663206A1, “NEXT-GENERATION ADC LINKER PLATFORM TECHNOLOGY AND POLYSACCHARIDE CROSS-LINKED COLLOIDAL PARTICLE-DRUG CONJUGATE” (Inventera Inc., priority 2023, dated 2024).

Key:
cancer cells = details: cited from earlier work
[1] = Phantom study, 3T MRI scanner (relaxivity)
Protocol: The measured r1 and r2 relaxivity values of NEMO-103 were 2.0 mM^-1s^-1 and 2.3 mM^-1s^-1, respectively (FIGS. 24d and 24e). The r2/r1 ratio, which is an important parameter for T1 MRI contrast agents, was calculated to be 1.15. […] For comparison, the measured r1 and r2 values of Dotarem® were 4.7 mM^-1s^-1 and 5.2 mM^-1s^-1, respectively, resulting in an r2/r1 ratio of 1.11.

[2] = Shoulder MR arthrography image quality assessment, clinical comparative study NEMO-103 vs GBCA; format: in vivo, humans; details: supine position, over time
Protocol: FIGS. 25 and 26 illustrate the phase design and image quality assessment method of a clinical comparative study between NEMO-103, a dextran-crosslinked T1 MRI contrast agent, and Dotarem®, a representative clinical gadolinium-based contrast agent (GBCA) for T1 MRI. Phase I refers to MR arthrography (MRA) images acquired within 30 minutes after contrast agent administration. Phase II refers to MRA images acquired between 30 and 60 minutes post-administration, and Phase III refers to MRA images acquired between 110 and 130 minutes post-administration. In Comparison 1, no quantitative or qualitative differences were observed between NEMO-103-based MRA images acquired during Phase I and Phase II (FIG. 27). […] In Comparison 3, which compared NEMO-103-based MRA images from Phase II with GBCA-based MRA images, more prominent differences were observed (FIG. 29).
Amid growing safety concerns surrounding gadolinium-based contrast agents (GBCAs), iron (Fe)-based alternatives have emerged as a subject of active investigation. The present example evaluates the efficacy of NEMO-103 in comparison with a GBCA by assessing contrast-to-noise ratio (CNR) and MR arthrography (MRA) image quality. […] Both contrast agents effectively delineated key anatomical structures, including tissue contrast, sharpness, rotator cuff tendons, labral structures, and adjacent cartilage. […]

[3] = stated in discussion, according to current reports; cited from earlier work
[4] = tested on: BT-474 human breast cancer xenograft model; assay: In vivo antitumor efficacy in cancer xenograft mouse model (intratumoral injection, tumor volume); parameters: species or system Balb/c nude mice; details: alone; Doxorubicin 2 mg/kg; TLRA1 agonist 6 nmol/mL (0.3 nmol)
Protocol: The antitumor efficacy of the drug was assessed by monitoring changes in tumor volume following administration. Cdex@TLRA1 and Cdex@TLRB1 were administered in a cancer xenograft mouse model to evaluate antitumor immune responses and subsequent tumor cell death.
Balb/c nude mice (6 weeks old) were used to establish a BT-474 human breast cancer xenograft model for in vivo efficacy evaluation. Approximately 1 × 10^6 BT-474 breast cancer cells were mixed with Matrigel at a 1:1 volume ratio and subcutaneously implanted into the dorsal flank of each mouse in a volume of approximately 100 µL.
Once tumor volumes reached approximately 50 mm^3, Cdex@TLRA1 and Cdex@TLRB1 were directly injected into the tumor masses, and tumor growth was monitored over a 2-week period to evaluate drug efficacy. The test substances were administered on days 0, 4, 7, 12, and 15 (see FIG. 18a). To enhance antitumor effects, doxorubicin was administered to all groups except the negative control group on days 1 and 9. A separate "doxorubicin only" group was included for comparative purposes (see FIG. 18b and Table 6).

In the case of CC[C@@]1(O)C(=O)OCc2c1cc1n(c2=O)Cc2c-1nc1cc(F)c(C)c3c1c2[C@@H](N)CC3 [DXd, exatecan], the “activity in cancer cells compared to SN-38” value (cancer cells) is listed as “approximately 10 fold”.

In the case of CNC[C@H](O)[C@@H](O)[C@H](O)[C@H](O)CO.O=C([O-])CN1CCN(CC(=O)[O-])CCN(CC(=O)O)CCN(CC(=O)[O-])CC1.[Gd+3] [Dotarem], the r1 relaxivity [1] is given as 4.7 mM⁻¹ s⁻¹, the “incidence of axillary pouch obliteration compared to NEMO-103” value [2] is given as “relatively higher incidence” and the hydrodynamic size [3] is given as less than 1 nm.

For COc1cccc2c1C(=O)c1c(O)c3c(c(O)c1C2=O)C[C@@](O)(C(=O)CO)C[C@@H]3O[C@H]1C[C@H](N)[C@H](O)[C@H](C)O1 [Doxorubicin], the tumor growth rate [4] was “reduction in tumor growth rate” and the tumor size [4] was “no significant decrease in tumor size”.
